In ChEMBL document CHEMBL5260833, “An overview of quinazolines: Pharmacological significance and recent developments” (Eur J Med Chem, 2018):

Legend:
[1] = Inhibition of Lacticaseibacillus casei TS
Thymidylate synthase = Thymidylate synthase (Homo sapiens, UniProt P04818); test: Inhibition of human TS
Rattus norvegicus [2] = test: Anticonvulsant activity in PTZ induced rat at 50 mg/kg, sc measured after 2 to 4 mins relative to control; format: functional; details: time 2-4 min
Rattus norvegicus [3] = test: Anticonvulsant activity in rat at 50 mg/kg, ip measured after 1 hrs by MES test relative to control; format: functional
Rattus norvegicus [4] = test: Anticonvulsant activity in albino rat at 30 mg/kg, ip measured after 1 hrs by MES test; format: functional
[5] = Binding affinity to AT1 in rabbit aorta; format: tissue-based, Oryctolagus cuniculus

Sequence of Thymidylate synthase (P04818 whole entry): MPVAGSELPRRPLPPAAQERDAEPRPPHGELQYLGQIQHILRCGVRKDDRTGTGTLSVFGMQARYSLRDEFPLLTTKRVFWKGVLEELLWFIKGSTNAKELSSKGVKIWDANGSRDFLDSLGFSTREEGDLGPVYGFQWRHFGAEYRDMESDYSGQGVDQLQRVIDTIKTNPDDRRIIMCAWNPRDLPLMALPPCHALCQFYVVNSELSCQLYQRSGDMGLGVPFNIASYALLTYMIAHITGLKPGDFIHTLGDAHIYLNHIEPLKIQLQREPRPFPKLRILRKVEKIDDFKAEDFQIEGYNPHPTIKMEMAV

| SMILES | Activity (Rattus norvegicus [2]) | Activity (Rattus norvegicus [3]) | IC50 [5] | further results |
| --- | --- | --- | --- | --- |
| Cc1ccc2nc(N)nc(O)c2c1Sc1ccc(C(=O)N[C@H](C(=O)O)c2ccccc2)cc1 |  |  |  | IC50 [1]: 200 nM; IC50 (Thymidylate synthase): 3 nM |
| Cc1nc2c(Br)cc(Br)cc2c(=O)n1NCc1nnc(N)s1 | 40% | 40% |  |  |
| Cc1nc2ccccc2c(=O)n1NCc1nnc(NCC2C(=O)NC(=O)NC2=O)s1 | 60% | 60% |  |  |
| Cc1nc2ccc(I)cc2c(=O)n1NCC(=O)NNC(N)=S | 20% | 20% |  |  |
| Cc1nc2ccccc2c(=O)n1NCC(=O)NNC(N)=S | 20% | 20% |  | inhibition in vivo at 30 mg/kg (Rattus norvegicus [4]): 30% |
| CCCCc1nc2ccc(NC(C)=O)cc2c(=O)n1Cc1ccc(-c2ccccc2-c2nn[nH]n2)cc1 |  |  | ≥ 1.3 nM |  |
| Cc1ccc2nc(N)[nH]c(=O)c2c1Sc1ccc(C(=O)N[C@H](C)c2ccccc2)cc1 |  |  |  | IC50 [1]: 200 nM; IC50 (Thymidylate synthase): 3 nM |
| CCCCc1nc2cc(C)ccc2c(=O)n1Cc1ccc(-c2ccccc2C(=O)O)cc1 |  |  | 370 nM |  |
| CCCC(CCC)C(=O)[O-].[Na+] [VALPROATE SODIUM] | 80% | 80% |  |  |
| Cc1nc2ccc(Br)cc2c(=O)n1NCc1nnc(NCC2C(=O)NC(=O)NC2=O)s1 | 60% | 60% |  |  |
| CS(C)(=O)=O [DIMETHYL SULFONE] |  |  | 2.6 nM |  |
| COC(=O)c1cccc([C@H](NC(=O)c2ccc(Sc3c(C)ccc4nc(N)nc(O)c34)cc2)C(=O)OC)c1 |  |  |  | IC50 [1]: 200 nM; IC50 (Thymidylate synthase): 3 nM |
| Cc1ccc2nc(N)[nH]c(=O)c2c1Sc1ccc(C(=O)N[C@H](CO)c2ccccc2)cc1 |  |  |  | IC50 [1]: 200 nM; IC50 (Thymidylate synthase): 3 nM |
| Cc1ccc2nc(N)[nH]c(=O)c2c1Sc1ccc(C(=O)Nc2cccc(C(=O)O)c2)cc1 |  |  |  | IC50 [1]: 200 nM; IC50 (Thymidylate synthase): 3 nM |
| Cc1nc2ccc(I)cc2c(=O)n1NCC(=O)NNC(=S)NCC1C(=O)NC(=S)NC1=O | 40% | 40% |  |  |
| CCOC(=O)CNn1c(C)nc2ccc(Br)cc2c1=O | 10% | 10% |  | inhibition in vivo at 30 mg/kg (Rattus norvegicus [4]): 20% |
| CCOC(=O)CNn1c(C)nc2ccc(I)cc2c1=O | 10% | 10% |  |  |
| CCOC(=O)CNn1c(C)nc2c(Br)cc(Br)cc2c1=O | 10% | 10% |  |  |
| CCOC(=O)CNn1c(C)nc2ccccc2c1=O | 10% | 10% |  | inhibition in vivo at 30 mg/kg (Rattus norvegicus [4]): 20% |

| SMILES | Activity (Rattus norvegicus [2]) | Activity (Rattus norvegicus [3]) | IC50 [5] | further results |
| --- | --- | --- | --- | --- |
| Cc1ccc2nc(N)nc(O)c2c1Sc1ccc(C(=O)N[C@H](C(=O)O)c2cccc(C(=O)O)c2)cc1 |  |  |  | IC50 [1]: 200 nM; IC50 (Thymidylate synthase): 3 nM |
| COC(=O)[C@H](Cc1ccc(N)cc1)NC(=O)c1ccc(Sc2c(C)ccc3nc(N)[nH]c(=O)c23)cc1 |  |  |  | IC50 [1]: 200 nM; IC50 (Thymidylate synthase): 3 nM |
| CCCCc1nc2ccc(C)cc2c(=O)n1Cc1ccc(-c2ccccc2-c2nn[nH]n2)cc1 |  |  | ≥ 1.3 nM |  |
| CCCCc1nc2ccc(N)cc2c(=O)n1Cc1ccc(-c2ccccc2-c2nn[nH]n2)cc1 |  |  | ≥ 1.3 nM |  |
| Cc1nc2ccc(Br)cc2c(=O)n1NCC(=O)NNC(N)=S | 20% | 20% |  | inhibition in vivo at 30 mg/kg (Rattus norvegicus [4]): 30% |
| CCCCc1nc2c(C)cccc2c(=O)n1Cc1ccc(-c2ccccc2C(=O)O)cc1 |  |  | 370 nM |  |
| CCCCc1nc2ccc(OC)cc2c(=O)n1Cc1ccc(-c2ccccc2-c2nn[nH]n2)cc1 |  |  | ≥ 1.3 nM |  |
| CCCCc1nc2cc3ccccc3cc2c(=O)n1Cc1ccc(-c2ccccc2C(=O)O)cc1 |  |  | 10 nM |  |
| CCCc1nc2ccc(C)cc2c(=O)n1Cc1ccc(-c2ccccc2-c2nn[nH]n2)cc1 |  |  | ≥ 1.3 nM |  |
| Cc1ccc2nc(N)nc(O)c2c1Sc1ccc(C(=O)N[C@H](C(=O)O)c2cccc(O)c2)cc1 |  |  |  | IC50 [1]: 200 nM; IC50 (Thymidylate synthase): 3 nM |
| CCc1nc2ccc(C)cc2c(=O)n1Cc1ccc(-c2ccccc2-c2nn[nH]n2)cc1 |  |  | ≥ 1.3 nM |  |
| Cc1nc2ccc(I)cc2c(=O)n1NCc1nnc(NCC2C(=O)NC(=O)NC2=O)s1 | 60% | 60% |  |  |
| Cc1nc2ccc(Br)cc2c(=O)n1NCc1nnc(N)s1 | 40% | 40% |  |  |
| CCCCc1nc2ccc(F)cc2c(=O)n1Cc1ccc(-c2ccccc2-c2nn[nH]n2)cc1 |  |  | ≥ 1.3 nM |  |
| COC(=O)[C@@H](NC(=O)c1ccc(Sc2c(C)ccc3nc(N)nc(O)c23)cc1)c1cccc(O)c1 |  |  |  | IC50 [1]: 200 nM; IC50 (Thymidylate synthase): 3 nM |
| CCCCc1nc2cccc(F)c2c(=O)n1Cc1ccc(-c2ccccc2-c2nn[nH]n2)cc1 |  |  | ≥ 1.3 nM |  |
| Cc1nc2c(Br)cc(Br)cc2c(=O)n1NCC(=O)NNC(=S)NCC1C(=O)NC(=S)NC1=O | 40% | 40% |  |  |
| CCCCc1nc2ccc(I)cc2c(=O)n1Cc1ccc(-c2ccccc2-c2nn[nH]n2)cc1 |  |  | ≥ 1.3 nM |  |
| CCCCc1nc2ccc(C)cc2c(=O)n1Cc1ccc(-c2ccccc2C(=O)O)cc1 |  |  | 10 nM |  |
